Results taken from ChEMBL document CHEMBL1127459, “Synthesis and biological activity of 3-[2-(dimethylamino)ethyl]-5-[(1,1-dioxo-5-methyl-1,2,5-thiadiazolidin- 2-yl)-methyl]-1H-indole and analogues: agonists for the 5-HT1D receptor” (J Med Chem, 1994).

Key:
5-HT1A receptor = 5-HT1A receptor (Sus scrofa, UniProt A0A4X1UTF5); assay: Displacement of [3H]8-OH-DPAT binding to 5-hydroxytryptamine 1A receptor from pig cortex
[1] = target: 5-hydroxytryptamine receptor 2A (Rattus norvegicus, UniProt P14842); assay: Displacement of [3H]DOB binding to 5-hydroxytryptamine 2A receptor from rat cortex homogenate
Sequence of 5-hydroxytryptamine receptor 2A (P14842 whole entry): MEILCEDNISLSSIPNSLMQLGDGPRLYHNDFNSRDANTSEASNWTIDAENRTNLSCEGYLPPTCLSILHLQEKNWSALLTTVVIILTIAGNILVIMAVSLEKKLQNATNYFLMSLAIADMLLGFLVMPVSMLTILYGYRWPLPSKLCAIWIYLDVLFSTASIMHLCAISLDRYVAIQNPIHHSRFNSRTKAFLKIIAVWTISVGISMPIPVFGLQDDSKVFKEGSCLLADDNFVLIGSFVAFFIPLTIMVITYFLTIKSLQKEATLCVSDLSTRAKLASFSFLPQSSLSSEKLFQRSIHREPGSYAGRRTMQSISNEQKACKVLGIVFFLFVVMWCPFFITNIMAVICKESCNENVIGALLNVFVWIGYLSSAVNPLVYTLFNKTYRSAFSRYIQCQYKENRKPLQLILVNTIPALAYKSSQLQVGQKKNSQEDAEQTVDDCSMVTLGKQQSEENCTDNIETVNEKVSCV

[2] = target: 5-hydroxytryptamine receptor 1D (Sus scrofa, UniProt P79400); assay: Displacement of [3H]5-HT binding to 5-hydroxytryptamine 1D receptor from pig caudate membrane
Sequence of 5-hydroxytryptamine receptor 1D (P79400 whole entry): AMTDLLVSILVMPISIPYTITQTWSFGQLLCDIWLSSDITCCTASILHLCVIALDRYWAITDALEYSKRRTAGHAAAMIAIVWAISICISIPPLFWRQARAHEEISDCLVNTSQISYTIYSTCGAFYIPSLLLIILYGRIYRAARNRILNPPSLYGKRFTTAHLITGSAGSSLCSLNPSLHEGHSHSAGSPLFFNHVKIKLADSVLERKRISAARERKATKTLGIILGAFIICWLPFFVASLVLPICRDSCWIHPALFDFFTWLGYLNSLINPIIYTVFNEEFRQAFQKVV

[3] = Partition coefficient at pH 7.4; type: physicochemical; conditions: octanol/water
Oryctolagus cuniculus [4] = species: Oryctolagus cuniculus; assay: Ability to contract saphenous vein of New Zealand white rabbit; type: functional
Oryctolagus cuniculus [5] = species: Oryctolagus cuniculus; assay: Ability to contract saphenous vein of New Zealand white rabbit.; type: functional
[6] = target: T1, Serotonin 3 (5-HT3) receptor (Rattus norvegicus, UniProt P35563+Q9JJ16); assay: Displacement of [3H]-Q-ICS 205-930 binding to 5-hydroxytryptamine 3 receptor from rat cortex homogenate
T1 sequence (P35563 whole entry): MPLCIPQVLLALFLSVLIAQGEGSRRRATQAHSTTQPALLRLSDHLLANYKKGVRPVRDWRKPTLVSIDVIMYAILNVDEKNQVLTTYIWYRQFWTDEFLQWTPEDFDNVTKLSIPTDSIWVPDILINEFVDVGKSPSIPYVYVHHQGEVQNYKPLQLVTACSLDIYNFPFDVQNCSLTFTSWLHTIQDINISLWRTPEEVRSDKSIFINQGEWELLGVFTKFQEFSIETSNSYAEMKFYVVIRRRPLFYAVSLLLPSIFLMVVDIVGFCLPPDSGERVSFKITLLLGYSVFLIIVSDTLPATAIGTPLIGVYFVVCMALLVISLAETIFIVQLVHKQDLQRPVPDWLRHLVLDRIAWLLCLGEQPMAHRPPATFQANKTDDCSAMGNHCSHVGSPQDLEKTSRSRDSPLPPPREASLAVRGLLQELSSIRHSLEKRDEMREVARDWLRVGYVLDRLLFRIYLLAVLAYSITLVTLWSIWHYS
T1 sequence (Q9JJ16 whole entry): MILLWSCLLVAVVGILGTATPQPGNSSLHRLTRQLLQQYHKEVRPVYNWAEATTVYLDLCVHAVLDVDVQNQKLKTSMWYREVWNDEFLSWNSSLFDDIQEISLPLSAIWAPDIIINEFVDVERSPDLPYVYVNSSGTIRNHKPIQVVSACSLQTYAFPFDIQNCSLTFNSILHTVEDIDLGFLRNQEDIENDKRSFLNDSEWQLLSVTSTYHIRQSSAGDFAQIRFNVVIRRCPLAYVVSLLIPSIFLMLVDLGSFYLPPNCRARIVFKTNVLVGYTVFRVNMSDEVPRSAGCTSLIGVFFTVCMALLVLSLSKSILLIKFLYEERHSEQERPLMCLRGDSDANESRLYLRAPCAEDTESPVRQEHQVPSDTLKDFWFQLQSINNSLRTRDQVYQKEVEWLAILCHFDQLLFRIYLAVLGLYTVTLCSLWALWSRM

Row | Compound | IC50 (5-HT1A receptor) [nM] | IC50 [1] [µM] | IC50 [2] [nM] | logD [3] | EC50 (Oryctolagus cuniculus [4]) [nM] | EC50 (Oryctolagus cuniculus [5]) [nM] | IC50 [6] [µM]
1 | CN(C)CCc1c[nH]c2ccc(N3CCN(Cc4ccccc4)S3(=O)=O)cc12 | 79.4 | 5.01 | 20 | – | – | – | –
2 | CN(C)CCc1c[nH]c2ccc(CN3CCNS3(=O)=O)cc12 | 794 | > 10 | 100 | -0.97 | 2510 | – | –
3 | CNCCc1c[nH]c2ccc(CN3CCN(C)S3(=O)=O)cc12 | 794 | > 10 | 100 | -1.71 | – | 2000 | –
4 | CN(C)CCc1c[nH]c2ccc(CN3C(C)(C)CNS3(=O)=O)cc12 | 1000 | > 10 | 200 | -0.78 | – | 6310 | –
5 | CN(C)CCc1c[nH]c2ccc(CN3CCN(C)S3(=O)=O)cc12 | 794 | > 10 | 63.1 | -0.68 | 631 | – | > 10
6 | CN(C)CCc1c[nH]c2ccc(CCN3CCN(C)S3(=O)=O)cc12 | 200 | 2.51 | 39.8 | -0.57 | – | 1580 | –
7 | CC(=O)Nc1ccc(CN2CCN(Cc3ccc4[nH]cc(CCN(C)C)c4c3)S2(=O)=O)cc1 | 200 | 7.94 | 20 | 0.42 | – | 501 | –
8 | CN(C)CCc1c[nH]c2ccc(CCN3CCNS3(=O)=O)cc12 | 126 | 5.01 | 39.8 | – | – | – | –
9 | CN1CCN(Cc2ccc3[nH]cc(CCN)c3c2)S1(=O)=O | 631 | > 10 | 316 | – | – | – | –
10 | CNS(=O)(=O)Cc1ccc2[nH]cc(CCN(C)C)c2c1 | 501 | – | – | – | – | – | > 10
11 | CN1CCN(Cc2ccc3scc(CCN)c3c2)S1(=O)=O | 2000 | 2 | 398 | – | 12600 | – | –
12 | CC(C)N1CCN(Cc2ccc3[nH]cc(CCN(C)C)c3c2)S1(=O)=O | 501 | > 10 | 100 | 0.16 | – | – | –
13 | CN(C)CCc1c[nH]c2ccc(N3CCN(C)S3(=O)=O)cc12 | 631 | > 10 | 100 | -0.92 | 3160 | – | –
14 | CN(C)CCc1c[nH]c2ccc(CN3CC(C)(C)NS3(=O)=O)cc12 | 251 | > 10 | 100 | -0.39 | – | 2510 | –
15 | CCN1CCN(CCc2ccc3[nH]cc(CCN(C)C)c3c2)S1(=O)=O | 126 | 2 | 39.8 | – | 1580 | – | –
16 | CN(C)CCc1c[nH]c2ccc(CN3CCCN(C)S3(=O)=O)cc12 | 126 | > 10 | 63.1 | -0.02 | – | 2510 | > 10
